Source: article PMC12367838, “Relevance of kinetic interactions and co-formulants for plant protection product liver toxicity in vitro” (Archives of Toxicology, 2025)

Assays:
Format in all cases: cell-based, human
HepaRG cells [1] = test: Neutral red uptake (NRU) cytotoxicity assay; settings: 72 h, tested concentration range
Experimental: (§1) Wild-type human hepatoma HepaRG cells obtained from Biopredic International (Saint Grégoire, France) were cultivated for 4 weeks in a Binder cell culture incubator maintained at 37 °C in a 5% humidified atmosphere with 5% CO2 before they were employed in this study. The 4 weeks consisted of 2 weeks of proliferation and 2 weeks of differentiation. […]
(§2) Cytotoxicity assays were performed in 96-well plates at a density of 9000 cells per well, and test compounds were incubated for 72 h. […] After the 30-min incubation with WST-1, absorbance was measured at 450 nm corrected by a reference at 620 nm (λexc = 450 nm/λemi = 620 nm) using an Infinite M200 PRO plate reader (Tecan; Männedorf, Switzerland). […] The absorbed dye was quantified by fluorescence measurement (λexc = 530 nm/λemi = 645 nm) on an Infinite M200 PRO plate reader (Tecan; Männedorf, Switzerland). Background corrected viability values of both assays were expressed as a percentage of untreated cells. […] Means and standard deviations for each treatment were calculated. […]

HepaRG cells [2] = test: AdipoRed triglyceride accumulation assay; settings: for Relative triglyceride accumulation: related to medium control
Experimental: Different elements of the liver steatosis AOP were evaluated in this study. Transcriptomics was employed as a tool to investigate the expression of liver steatosis-related genes that occur either as MIE (genes related to NR activation) or molecular and cellular KEs. In addition to gene expression, lipid accumulation in HepaRG cells was conducted to cover molecular KEs. Considering that upstream MIEs occur earlier than subsequent downstream KEs (Alarcan et al. [2021]), we applied different time points (24 h for transcriptomics and 72 h for lipid accumulation) to reflect the temporal relationships between biological events.
HepaRG cells were treated in 96-well plates for 72 h with eight different concentrations of the above-mentioned test compounds, with the highest concentration of each being the highest non-cytotoxic concentration. The synthetic LXR and FXR agonist, T0901317, was used as a positive control at a concentration of 10 µM. After the 72-h incubation, cells were washed with 200 µL phosphate-buffered saline (PBS), and then 200 µL PBS containing 5 µg/mL Hoechst 33,342 (Thermo Fisher Scientific; Waltham, Massachusetts, USA) was added to each well. Thereafter, 5 µL of the AdipoRed reagent was added to each well, and the plates were incubated at 37 °C for 10 min. Subsequently, the fluorescence of AdipoRed was measured at λexc = 485 nm/λemi = 572 nm, and Hoechst 33,342 was measured at λexc = 350 nm/λemi = 451 nm on the Infinite M200 PRO plate reader (Tecan; Männedorf, Switzerland). AdipoRed signals were normalized to Hoechst 33,342 signals to compensate for variations in cell number. Relative triglyceride levels were referred to untreated cells. Each concentration was measured in three technical replicates. Three independent biological replicates were performed (n = 3) and means as well as SD were calculated.
A linear mixed-effects ANOVA (α = 0.05) described by Pinheiro and Bates ([2000]) followed by a post-hoc Dunnett test for multiple comparisons of treatment groups versus the control was used for statistical analysis of data from cytotoxicity assay, AdipoRed assay, CYP450 inhibition assay as well as mixture effects. R studio (ver. 4.4.1) was used to determine the effective concentration at relative triglyceride induction fold of 1.5 for each test compound.

HepaRG cells [3] = test: WST-1 cytotoxicity assay; settings: WST-1 assay, 72 h incubation
Experimental: as §1, §2

## C#CCOc1ccc(CCNC(=O)C(OCC#C)c2ccc(Cl)cc2)cc1OC (centres unmarked) [MDP, mandipropamid]
HepaRG cells [1]
  cytotoxicity: not cytotoxic in the tested concentration range
HepaRG cells [2]; 5.00 mg/L, 72 h
  Relative triglyceride accumulation: 1.2
HepaRG cells [2]; 6.00 mg/L, 72 h
  Relative triglyceride accumulation: 1.1
HepaRG cells [2]; 8.00 mg/L, 72 h
  Relative triglyceride accumulation: 1.3
HepaRG cells [2]; 10.0 mg/L, 72 h
  Relative triglyceride accumulation: 1.3
HepaRG cells [2]; 12.0 mg/L, 72 h
  Relative triglyceride accumulation: 1.2
HepaRG cells [2]; 15.0 mg/L, 72 h
  Relative triglyceride accumulation: 1.6
HepaRG cells [2]; 19.0 mg/L, 72 h
  Relative triglyceride accumulation: 1.8
HepaRG cells [2]; HepaRG cells, 72-h incubation
  EC1.5-fold (effective concentration at 1.5 relative triglyceride induction fold): 14.4 mg/L
HepaRG cells [2]; HepaRG cells, 72 h
  EC1.5-fold: ≈ 35 µM
HepaRG cells [3]
  EC50 for cytotoxicity: 245 mg/L
